Assays:
[1] = biological target: T1, human A2B adenosine receptors (Homo sapiens, UniProt P29275); assay: Displacement of [3H]MRE2029F20 binding at human A2B adenosine receptors; conditions: [3H]MRE2029F20 displacement, human A2B receptors (footnote: HEK293 cells; method: CHO cells), n = 3-6; geometric mean (95% confidence limits); read-out: Ki hA2B
T1 construct: expressed in transfected cells; host or cells: CHO cells (whole cells)
T1 sequence (P29275 1-332): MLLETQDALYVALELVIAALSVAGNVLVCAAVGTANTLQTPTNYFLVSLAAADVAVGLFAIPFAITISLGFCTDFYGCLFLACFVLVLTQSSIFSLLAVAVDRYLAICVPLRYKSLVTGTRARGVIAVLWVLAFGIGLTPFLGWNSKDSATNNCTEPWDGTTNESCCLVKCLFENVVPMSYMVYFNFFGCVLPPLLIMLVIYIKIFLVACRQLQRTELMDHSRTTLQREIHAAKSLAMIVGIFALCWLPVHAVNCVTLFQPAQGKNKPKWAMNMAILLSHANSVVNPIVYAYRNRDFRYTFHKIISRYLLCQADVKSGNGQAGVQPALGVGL
Description: […] (Naunyn-Schmied. Arch Pharm. 1998, 357: 1-9). Briefly, the cells are grown adherently and maintained in Dulbecco's Modified Eagles Medium with nutrient mixture F12 (DMEM/F12) without nucleosides, containing 10% fetal calf serum, penicillin (100 U/mL), streptomycin (100 μg/mL), L-glutamine (2 mM) and Geneticin (G418, 0.2 mg/ml) at 37° C. in 5% CO2/95% air. For membrane preparation the culture medium is removed and the cells are washed with phosphate-buffered saline and scraped off T75 flasks in ice-cold hypo tonic buffer (5 mM Tris HCl, 1 mM EDTA, pH 7.4). The cell suspension is homogenized with Polytron, the homogenate is spun for 10 min at 1000×g and the supernatant is then centrifuged for 30 min at 100,000×g. The membrane pellet is suspended in 50 mM Tris HCl buffer (pH 7.4) for A1 adenosine receptors, in 50 mM Tris HCl, 10 mM MgCl2 (pH 7.4) for A2A adenosine receptors, in 50 mM Tris HCl, 10 mM MgCl2, 1 mM EDTA (pH 7.4) for A2B and A3 adenosine receptors.
All new synthesized compounds have been tested to evaluate their affinity to human A1, A2A, A2B and A3 adenosine receptors. […] Pharmacol., 2000, 57: 968-975). Non-specific binding is determined in the presence of 10 μM of CHA and this is always ≦10% of the total binding. […] recombinant A2A adenosine receptors is performed using a suspension of membranes (50 μg of protein/assay) and at least 6-8 different concentrations of studied antagonists for an incubation time of 60 min at 4° C. Non-specific binding is determined in the presence of 1 μM ZM 241385 and is about 20% of total binding. […] Non-specific binding is defined as binding in the presence of 1 μM MRE 3029F20 and is about 25% of total binding. […] Non-specific binding is defined as binding in the presence of 1 μM MRE 3008F20 and is about 25% of total binding. Bound and free radioactivity are separated by filtering the assay mixture through Whatman GF/B glass fiber filters using a Micro-Mate 196 cell harvester (Packard Instrument Co.). The filter bound radioactivity is counted on a Top Count (efficiency 57%) with Micro-Scint 20.
(§1) The protein concentration is determined according to a Bio-Rad method (Bradford, Anal Biochem. 1976, 72: 248-254) with bovine albumin as a standard reference. Inhibitory binding constant, Ki, values are calculated from those of IC50 according to Cheng & Prusoff equation (Biochem. Pharmacol 1973, 22: 3099-3108): Ki=IC50/(1+[C*]/KD*) where [C*] is the concentration of the radioligand and KD* its dissociation constant. A weighted non linear least-squares curve fitting program LIGAND (Munson et al., Anal. Biochem 1980, 107: 220-239) is used for computer analysis of inhibition experiments Data are expressed as geometric mean with 95% confidence limits in parentheses. Examples of Animal Models

[2] = biological target: T1, human A2B adenosine receptors; assay: cAMP assay in CHO cells expressing human A2B adenosine receptors (antagonism of NECA-induced cAMP); type: cell-based; conditions: antagonism of NECA (100 nM)-induced cAMP, geometric mean (95% confidence limits), read-out: IC50 hA2B (cAMP assay)
Description: Measurement of Cyclic AMP Levels in CHO Cells Transfected with Human A2B Adenosine Receptors
CHO cells transfected with human A2B adenosine receptors are washed with phosphate-buffered saline, diluted trypsine and centrifuged for 10 min at 200 g. The pellet containing the CHO cells (1×10^6 cells/assay) is suspended in 0.5 mL of incubation mixture: NaCl 150 mM, KCl 2.7 mM, NaH2PO4 0.37 mM, MgSO4 1 mM, CaCl2 1 mM, Hepes 5 mM, MgCl2 10 mM, glucose 5 mM, pH 7.4 at 37° C. Then 2.0 IU/mL adenosine deaminase and 0.5 mM 4-(3-butoxy-4-methoxybenzyl)-2-imidazolidinone (Ro 20-1724) as phosphodiesterase inhibitor are added and preincubated for 10 min a shaking bath at 37° C. The potency of antagonists studied are determined by antagonism of NECA (100 nM)-induced stimulation of cyclic AMP levels. The reaction is terminated by the addition of cold 6% thrichloroacetic acid (TCA). The TCA suspension is centrifuged at 2000 g for 10 min at 4° C. and the supernatant is extracted four times with water saturated diethyl ether. The final aqueous solution is tested for cyclic AMP levels by a competition protein binding assay. Samples of cyclic AMP standard ([…]) are added to each test tube containing the incubation buffer (trizma base 0.1 M, aminophylline 8.0 mM, 2-mercaptoethanol 6.0 mM (pH 7.4) and [^3H]cyclic AMP in a total volume of 0.5 mL. The binding protein previously prepared from beef adrenals, is added to the samples previously incubated at 4° C. for 150 min, and after the addition of charcoal are centrifuged at 2000 g for 10 min. The clear supernatant is counted with 4 mL of Atomlight liquid scintillator and counted in a Tri Carb Packard 2500 TR scintillation counter.
as §1

| SMILES | Ki [1] [nM] | IC50 [2] [nM] |
| --- | --- | --- |
| CCCn1c(=O)c2[nH]c(-c3cc(C)n(CC(=O)Nc4ccc(C)cc4)n3)nc2n(CCC)c1=O [Example 17, 2-[3-(2,6-Dioxo-1,3-dipropyl-2,3,6,7-tetrahydro-1H-purin-8-yl)-5-methyl-pyrazol-1-yl]-N-p-tolyl-acetamide] | 56 | 212 |
| CCCn1c(=O)c2[nH]c(-c3cc(C)n(CC(=O)Nc4ccc(F)cc4)n3)nc2n(CCC)c1=O [Example 5, 2-[3-(2,6-Dioxo-1,3-dipropyl-2,3,6,7-tetrahydro-1H-purin-8-yl)-5-methyl-pyrazol-1-yl]-N-(4-fluoro-phenyl)-acetamide] | 14 | 68 |
| CCCn1c(=O)c2[nH]c(-c3cc(C)n(CC(=O)Nc4cccc(OC)c4)n3)nc2n(CCC)c1=O [Example 14, 2-[3-(2,6-Dioxo-1,3-dipropyl-2,3,6,7-tetrahydro-1H-purin-8-yl)-5-methyl-pyrazol-1-yl]-N-(3-methoxylphenyl)-acetamide] | 65 | 266 |
| CCCn1c(=O)c2[nH]c(-c3cc(C)n(CC(=O)Nc4ccc(C(C)CC)cc4)n3)nc2n(CCC)c1=O (stereo not shown) [Example 12, 2-[3-(2,6-Dioxo-1,3-dipropyl-2,3,6,7-tetrahydro-1H-purin-8-yl)-5-methyl-pyrazol-1-yl]-N-(4-sec-butylphenyl)-acetamide] | > 1000 | > 1000 |
| CCCn1c(=O)c2[nH]c(-c3cc(C)n(CC(=O)Nc4ccc(OC)c(OC)c4)n3)nc2n(CCC)c1=O [Example 8, 2-[3-(2,6-Dioxo-1,3-dipropyl-2,3,6,7-tetrahydro-1H-purin-8-yl)-5-methyl-pyrazol-1-yl]-N-(3,4-dimethoxyphenyl)-acetamide] | 60 | 222 |
| CCCn1c(=O)c2[nH]c(-c3nn(CC(=O)Nc4ccc(Cl)cc4)c(C)c3Cl)nc2n(CCC)c1=O [Example 18, 2-[4-Chloro-3-(2,6-dioxo-1,3-dipropyl-2,3,6,7-tetrahydro-1H-purin-8-yl)-5-methyl-pyrazol-1-yl]-N-(4-chlorophenyl)-acetamide] | 222 | > 1000 |
| CCCn1c(=O)c2[nH]c(-c3cc(C)n(CC(=O)Nc4ccc(Cl)c(Cl)c4)n3)nc2n(CCC)c1=O [Example 16, 2-[3-(2,6-Dioxo-1,3-dipropyl-2,3,6,7-tetrahydro-1H-purin-8-yl)-5-methyl-pyrazol-1-yl]-N-(3,4-dichlorophenyl)-acetamide] | 40 | 188 |
| CCCn1c(=O)c2[nH]c(-c3cc(C)n(CC(=O)Nc4ccccc4)n3)nc2n(CCC)c1=O [Example 1, 2-[3-(2,6-Dioxo-1,3-dipropyl-2,3,6,7-tetrahydro-1H-purin-8-yl)-5-methyl-pyrazol-1-yl]-N-phenyl-acetamide] | 15 | 58 |
| CCCn1c(=O)c2[nH]c(-c3ccn(CC(=O)Nc4ccc(Cl)cc4)n3)nc2n(CCC)c1=O [Example 10, 2-[3-(2,6-Dioxo-1,3-dipropyl-2,3,6,7-tetrahydro-1H-purin-8-yl)-pyrazol-1-yl]-N-(4-chloro-phenyl)-acetamide] | 20 | 80 |
| CCCn1c(=O)c2[nH]c(-c3cc(C)n(CC(=O)Nc4cccc(Cl)c4)n3)nc2n(CCC)c1=O [Example 15, 2-[3-(2,6-Dioxo-1,3-dipropyl-2,3,6,7-tetrahydro-1H-purin-8-yl)-5-methyl-pyrazol-1-yl]-N-(3-chlorophenyl)-acetamide] | 28 | 106 |
| CCCn1c(=O)c2[nH]c(-c3cc(C)n(CC(=O)Nc4ccc(I)cc4)n3)nc2n(CCC)c1=O [Example 2, 2-[3-(2,6-Dioxo-1,3-dipropyl-2,3,6,7-tetrahydro-1H-purin-8-yl)-5-methyl-pyrazol-1-yl]-N-(4-iodophenyl)-acetamide] | 28 | 115 |
| CCCn1c(=O)c2[nH]c(-c3nn(CC(=O)Nc4ccc(Cl)cc4)c(C)c3Br)nc2n(CCC)c1=O [Example 19, 2-[4-Bromo-3-(2,6-dioxo-1,3-dipropyl-2,3,6,7-tetrahydro-1H-purin-8-yl)-5-methyl-pyrazol-1-yl]-N-(4-chlorophenyl)-acetamide] | 250 | > 1000 |
| CCCn1c(=O)c2[nH]c(-c3cc(C)n(CC(=O)Nc4ccc(C)c(C)c4)n3)nc2n(CCC)c1=O [Example 7, 2-[3-(2,6-Dioxo-1,3-dipropyl-2,3,6,7-tetrahydro-1H-purin-8-yl)-5-methyl-pyrazol-1-yl]-N-(3,4-dimethylphenyl)-acetamide] | 48 | 200 |
| CCCn1c(=O)c2[nH]c(-c3cc(C)n(CC(=O)Nc4ccc(OC)cc4)n3)nc2n(CCC)c1=O [Example 6, 2-[3-(2,6-Dioxo-1,3-dipropyl-2,3,6,7-tetrahydro-1H-purin-8-yl)-5-methyl-pyrazol-1-yl]-N-(4-methoxyphenyl)-acetamide] | 12 | 61 |

From patent publication US7767685B2, “Adenosine A2B receptor antagonists” (King Pharmaceuticals Research and Development, Inc., priority 2006, dated 2010)
